Experimental data taken from patent US5474984A, “Horseshoe crab amebocyte lysate factor G activation inhibitor” (priority 1988, dated 1995).
Values belong to the molecule of their own block, whether it stands above or below them.

What was measured:
factor G fraction of LAL = target: T1, factor G fraction of LAL (Tachypleus tridentatus, UniProt Q27082); test: Method of measuring the titer of the activity of a factor G activation inhibitor (GI); type: biochemical, T. tridentatus; conditions: 10 pg factor G activating substance (sample No. 106), 37° C. 30 minutes; 100% inhibition = 100 units
T1 construct: Prepared from horseshoe crab, T. tridentatus; from tissue; host or cells: horseshoe crab amebocyte lysate (LAL), factor G fraction
T1 sequence (Q27082 20-673): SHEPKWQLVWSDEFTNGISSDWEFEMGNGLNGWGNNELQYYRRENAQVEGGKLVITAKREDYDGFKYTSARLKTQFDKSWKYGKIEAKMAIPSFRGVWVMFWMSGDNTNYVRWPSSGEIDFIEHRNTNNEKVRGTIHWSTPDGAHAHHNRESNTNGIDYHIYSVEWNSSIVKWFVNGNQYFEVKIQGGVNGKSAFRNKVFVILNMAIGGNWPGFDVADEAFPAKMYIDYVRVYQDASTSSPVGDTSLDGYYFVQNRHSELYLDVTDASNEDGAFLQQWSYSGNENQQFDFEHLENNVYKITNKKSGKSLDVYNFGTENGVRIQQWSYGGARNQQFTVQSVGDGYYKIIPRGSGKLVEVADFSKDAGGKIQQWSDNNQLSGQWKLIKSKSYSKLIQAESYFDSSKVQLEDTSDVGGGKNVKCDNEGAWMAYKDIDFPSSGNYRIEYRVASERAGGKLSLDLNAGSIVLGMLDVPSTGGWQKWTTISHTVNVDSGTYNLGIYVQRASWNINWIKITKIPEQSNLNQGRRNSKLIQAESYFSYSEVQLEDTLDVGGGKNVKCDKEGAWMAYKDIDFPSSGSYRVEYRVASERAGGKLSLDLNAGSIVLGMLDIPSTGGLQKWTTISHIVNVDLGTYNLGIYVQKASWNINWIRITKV
T1 sequence (Q27083 32-309 partner): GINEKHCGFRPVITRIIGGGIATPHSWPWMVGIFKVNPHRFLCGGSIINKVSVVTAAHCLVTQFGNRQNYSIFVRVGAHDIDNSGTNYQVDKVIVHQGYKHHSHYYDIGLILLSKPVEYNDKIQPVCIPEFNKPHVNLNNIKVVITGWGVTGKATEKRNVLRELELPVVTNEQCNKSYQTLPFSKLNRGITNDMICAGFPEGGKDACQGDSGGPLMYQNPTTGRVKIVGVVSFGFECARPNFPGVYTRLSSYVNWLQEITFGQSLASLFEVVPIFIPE
Description: The factor G activation inhibiting titer was measured by the "method of measuring the titer of the activity of a factor G activation inhibitor" described below and expressed in units/mg.
Method of measuring the titer of the activity of a factor G activation inhibitor (sometimes abbreviated as GI):
Two hundred microliters of the reaction mixture contained the following materials. […]
The above reaction mixture was incubated at 37° C. for 30 minutes, and 0.5 ml each of 0.04% sodium nitrite (0.48M HCl solution), 0.3% ammonium sulfamate, and 0.07% N-(1-naphthyl)ethylenediamine dihydrochloride were successively added, and its color was changed by diazo coupling. The amount of pNA liberated was measured as the absorbance at 545 nm (A545).
The GI activity was calculated from the following equation. [formula]
The amount of GI which inhibited activation of factor G by GA under these conditions to an extent of 100% is defined as 100 units.
A sample which is water-insoluble is used after it is dissolved in 0.3M NaOH, and neutralized with an equal volume of 0.3M HCl.
A GPC fractionated pure sample of the sonicated product of Curdlan which was prepared in Preparation Example 5 (Table 2, sample No. 106 having a molecular weight of 216,000).
Prepared from horseshoe crab, T. tridentatus, inhabiting the coast of Japan in accordance with the method described in T. Obayashi et al., Clin. Chim. Acta, 149, 55-65 (1985).

factor G [1] = target: T2, factor G (Tachypleus tridentatus, UniProt Q27082); test: Operating mechanism experiment: inhibition of the factor G pathway with varied sequence of addition; type: biochemical, horseshoe crab; conditions: 5 micrograms inhibitor
T2 construct: prepared from LAL by the method described in T. Obayashi et al; from tissue; host or cells: horseshoe crab amebocyte lysate (LAL), factor G fraction
T2 sequence (Q27082 20-673): T1 sequence (Q27082 20-673)
T2 sequence (Q27083 32-309 partner): T1 sequence (Q27083 32-309 partner)
Excerpt: (§1) A reaction mixture of the following composition was used. Two hundred microliters of the reaction mixture contained 5 micrograms of a factor G activation inhibitor (laminariheptaose; sample No. 10; abbreviated as I), 3 pg of a factor G activating substance (GPC fraction of sonicated Curdlan; sample No. 106; abbreviated as A), 20 microliters of a factor G fraction (abbreviated as G) and 30 microliters of a proclotting enzyme fraction (abbreviated as P) prepared from LAL by the method described in T. Obayashi et al., Clin. Chim. Acta, 149, 55-65 (1985), 20 μmoles of Tris-HCl buffer (pH 8.0), 20 μmoles of MgCl2 and 0.13 μmole of a chromogenic substrate Boc-Leu-Gly-Arg-pNA (abbreviated as S).
(§2) In each of Runs 1 to 5, the sequence of adding the ingredients and the incubating conditions were varied, and the degree of inhibition of the factor G pathway was measured and determined in comparison with a control in which no inhibitor was added.

factor G [2] = test: as above; type: biochemical, horseshoe crab; conditions: factor G activated by A before inhibitor
Excerpt: as §1, §2

Compound: OC[C@H]1O[C@@H](O[C@@H]2[C@@H](O)[C@H](O[C@@H]3[C@@H](O)[C@H](O[C@@H]4[C@@H](O)[C@H](O[C@H]5[C@H](O)[C@@H](CO)OC(O)[C@@H]5O)O[C@H](CO)[C@H]4O)O[C@H](CO)[C@H]3O)O[C@H](CO)[C@H]2O)[C@H](O)[C@@H](O)[C@@H]1O (stereo partly drawn) [compound 8, Laminaripentaose]
Factor G activation inhibiting titer (factor G fraction of LAL): 39,800 units/mg

Compound: OC[C@H]1O[C@@H](O[C@@H]2[C@@H](O)[C@H](O[C@@H]3[C@@H](O)[C@H](O[C@@H]4[C@@H](O)[C@H](O[C@@H]5[C@@H](O)[C@H](O[C@H]6[C@H](O)[C@@H](CO)OC(O)[C@@H]6O)O[C@H](CO)[C@H]5O)O[C@H](CO)[C@H]4O)O[C@H](CO)[C@H]3O)O[C@H](CO)[C@H]2O)[C@H](O)[C@@H](O)[C@@H]1O (stereo partly drawn) [compound 9, Laminarihexaose]
Factor G activation inhibiting titer (factor G fraction of LAL): 55,000 units/mg

Compound: OCC1OC(OC2C(O)C(CO)OC(OC3C(O)C(CO)OC(OC4C(O)C(CO)OC(OC5C(O)C(CO)OC(OC6C(O)C(CO)OC(OC7C(O)C(O)OC(CO)C7O)C6O)C5O)C4O)C3O)C2O)C(O)C(O)C1O (stereo not drawn) [compound 10, Laminariheptaose]
Inhibition rate (%) to the control (factor G [1]; Run 1 (sequence of addition drawing 11), 3 pg activating substance sample No. 106): 100% | Inhibition rate (%) to the control (factor G [1]; Run 2 (sequence drawing 12), 3 pg activating substance): 100% | Inhibition rate (%) to the control (factor G [1]; Run 3 (sequence drawing 13), 3 pg activating substance): 100% | Inhibition rate (%) to the control (factor G [2]; Run 4 (sequence drawing 14)): 1.7% | Inhibition rate (%) to the control (factor G [2]; Run 5 (sequence drawing 15)): 0% | Factor G activation inhibiting titer (factor G fraction of LAL): 103,000 units/mg

Compound: OC[C@H]1OC(O)[C@H](O)[C@@H](O)[C@@H]1O (stereo partly drawn) [compound 108, Glucose, reference compound]
Factor G activation inhibiting titer (factor G fraction of LAL): < 100 units/mg

Second part, the molecule after the results:

Factor G activation inhibiting titer (factor G fraction of LAL): 214 units/mg
Compound: OC[C@H]1O[C@@H](O[C@H]2[C@H](O)[C@@H](CO)OC(O)[C@@H]2O)[C@H](O)[C@@H](O)[C@@H]1O (stereo partly drawn) [compound 5, Laminasiribose]

Factor G activation inhibiting titer (factor G fraction of LAL): 4,670 units/mg
Compound: OC[C@H]1O[C@@H](O[C@@H]2[C@@H](O)[C@H](O[C@H]3[C@H](O)[C@@H](CO)OC(O)[C@@H]3O)O[C@H](CO)[C@H]2O)[C@H](O)[C@@H](O)[C@@H]1O (stereo partly drawn) [compound 6, Laminaritriose]

Factor G activation inhibiting titer (factor G fraction of LAL): 20,000 units/mg
Compound: OC[C@H]1O[C@@H](O[C@@H]2[C@@H](O)[C@H](O[C@@H]3[C@@H](O)[C@H](O[C@H]4[C@H](O)[C@@H](CO)OC(O)[C@@H]4O)O[C@H](CO)[C@H]3O)O[C@H](CO)[C@H]2O)[C@H](O)[C@@H](O)[C@@H]1O (stereo partly drawn) [compound 7, Laminaritetraose]
